Read-outs that look alike come from different tables or passages of the source.
What was measured:
Type in all cases: cell-based, human
[1] = system: H2122; experiment: Cell viability dose-response, H2122; details: Homo sapiens; for AC50: NCI-H2122, Table 8, 12-point dose-response starting at 50 micromolar
How it was run: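 Cells plated at 15% confluence in RPMI-1640 with 5% FBS and 2 mM L-glutamine, treated with compound in a 12-point, 3-fold dilution series from 50 micromolar, in duplicate. ATP measured by Cell Titer Glo after 4 days; IC50 taken from the dose-response curve.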

[2] = system: HCC44; experiment: Cell viability dose-response, HCC44; details: Homo sapiens; for AC50: HCC44, Table 8, 12-point dose-response starting at 50 micromolar
Protocol: (§1) FIG. 6A. […] Cell viability is plotted vs. compound concentration. Compound was added to cells plated at 15% confluence in 96-well plates in RPMI-1640 media supplemented with 5% Fetal Bovine Serum and 2 mM L-Glutamine. After 4 days of incubation, ATP levels were measured using Cell Titer Glo (Promega). Data are presented as the average of 2 replicates ±SEM.
(§2) Selectivity may be measured by the half maximal inhibitory concentration (IC50), which, as used herein, is a measure of the effectiveness of a compound in killing cells. This quantitative measure indicates how much of a particular compound is needed to kill a particular cell population by half (e.g., as indicated by the amount of ATP). […] The IC50 can be determined by constructing a dose-response curve. The lower the IC50, the higher the potency, and the greater the difference between IC50 values for different cell lines (e.g., sensitive lines vs. insensitive lines, and sensitive lines vs. normal lines) the greater the selectivity. […]
(§3) With this information, we synthesized and tested a series of small molecules derived in conception from the oxalamide and chromone scaffold including N-acyl ureas, as shown in Tables 6-8. Each compound was tested in a 12-point dose-response study starting at 50 micromolar and decreasing in 3-fold increments to sub-nanomolar concentrations, in duplicate. Additionally, one or more additional cell line was tested in the same way.

[3] = system: H2009; experiment: Cell viability dose-response, H2009; details: Homo sapiens; for IC50: NCI-H2009; for AC50: NCI-H2009, Table 8
Protocol: as §1, §2, §3

[4] = NCI-H2122, Table 9, competitor, read-out: IC50 to H2122 cells
[5] = NCI-H2122, Tables 3 and 4, read-out: IC50 (uM) vs indicated non-small cell lung cancer cell line H2122
[6] = HCC44, Tables 3 and 4, read-out: IC50 (uM) vs indicated non-small cell lung cancer cell line HCC44
[7] = Tables 3 and 4, read-out: IC50 (uM) vs indicated non-small cell lung cancer cell line H2009
[8] = NCI-H2122, 12-point dose-response starting at 50 micromolar, 3-fold increments, in duplicate, read-out: toxicity data, H2122
[9] = HCC44, 12-point dose-response starting at 50 micromolar, 3-fold increments, in duplicate, read-out: toxicity data, HCC44
[10] = 12-point dose-response starting at 50 micromolar, 3-fold increments, in duplicate, read-out: toxicity data, H2009
[11] = 12-point dose-response starting at 50 micromolar

| Structure (SMILES) | IC50 [1, 8] | IC50 [2, 9] | IC50 [3, 10] | AC50 [1] | AC50 [2] | AC50 [3, 11] | further results |
| --- | --- | --- | --- | --- | --- | --- | --- |
| O=C(Nc1nc2ccccc2[nH]1)c1ccc(C(=O)c2ccccc2)cc1 [SW208653-1] | – | – | – | – | – | – | IC50 [1, 4]: 0.0383 µM; IC50 [1, 5]: 0.042 µM; IC50 [2, 6]: 3.63 µM; IC50 [3, 7]: 1.8 µM |
| COc1ccc(CCNC(=O)NC(=O)c2ccc(C(=O)O)cc2)cc1 [SW208395-1-A] | ≥ 49.5 µM | ≥ 49.5 µM | ≥ 49.5 µM | – | – | – | – |
| COc1ccc(CCNC(=O)NC(=O)c2ccc(C(=O)c3ccccc3)cc2)cc1 [SW208222-1-A] | 0.105 µM | 0.241 µM | 48 µM | – | – | – | IC50 [1, 4]: 0.142 µM |
| Cc1ccc(/C=C/c2coc3cc(OCc4cnn(-c5ccccc5)c4)ccc3c2=O)cc1 [SW208758-1] | – | – | – | ≥ 49.5 µM | 49.5 µM | 16.5 µM | – |
| O=c1c(Oc2ccccc2Cl)coc2cc(OCc3cnn(-c4ccccc4)c3)ccc12 [SW 208589-1] | – | – | – | 0.12 µM | 49.5 µM | 4.76 µM | – |
| COc1ccc(CCN(C)C(=O)N(C)C(=O)c2ccc(C(=O)c3ccccc3)cc2)cc1 [SW208567-1-A] | 15.7 µM | 8 µM | 16.5 µM | – | – | – | – |
| COc1ccc(-c2coc3cc(OCc4cnn(-c5ccccc5)c4)ccc3c2=O)c(C)c1 [SW208767-1] | – | – | – | 2.07 µM | 4.06 µM | 49.5 µM | – |
| COc1cccc(C(=O)c2ccc(C(=O)NC(=O)NCCc3ccc(O)cc3)cc2)c1 [SW208579-1-A] | 0.82 µM | 0.46 µM | 0.42 µM | – | – | – | – |
| O=c1c(Oc2ccccc2)coc2cc(OCc3cnn(-c4ccccc4)c3)ccc12 [SW 208586-1] | – | – | – | 0.11 µM | 0.15 µM | 49.5 µM | – |
| COc1ccc(CCNC(=O)NC(=O)c2cccc(C)c2)cc1 [SW208399-1-A] | ≥ 49.5 µM | ≥ 49.5 µM | 16.5 µM | – | – | – | – |
| COc1ccc(CC(=O)Nc2ccc(C(=O)c3ccccc3)cc2)cc1 [SW208583-1-A] | 3.4 µM | 4.3 µM | ≥ 49.5 µM | – | – | – | – |
| O=c1c(-c2cccc(O)c2)coc2cc(OCc3cnn(-c4ccccc4)c3)ccc12 [SW208740] | – | – | – | 21 µM | 49.5 µM | 39 µM | – |
| Cn1c(NC(=O)c2ccc(C(=O)c3ccccc3)cc2)nc2ccccc21 [SW208770-1] | – | – | – | – | – | – | IC50 [1, 5]: 31.4 µM; IC50 [2, 6]: 12.7 µM; IC50 [3, 7]: 3.06 µM |
| Cn1ccc(=O)c2ccc(OCc3cnn(-c4ccccc4)c3)cc21 [SW208832-1] | – | – | – | 7.56 µM | 49.5 µM | 7.51 µM | – |
| COc1ccc(CCNC(=O)NC(=O)c2ccc(Br)cc2)cc1 [SW208388-1-A] | 0.16 µM | 0.42 µM | ≥ 49.5 µM | – | – | – | – |
| Cc1cccc(Oc2coc3cc(OCc4cnn(-c5ccccc5)c4)ccc3c2=O)c1 [SW 208595-1] | – | – | – | 0.2 µM | 0.1 µM | 16.5 µM | – |
| COc1ccc(CCNC(=O)NC(=O)c2ccc(C(=O)N3CCCCC3)cc2)cc1 [SW208397-1-A] | 2.28 µM | ≥ 49.5 µM | 16.5 µM | – | – | – | – |
| O=C(Nc1ncc(Cc2ccccc2)s1)c1ccc(C(=O)c2ccccc2)cc1 [SW208834] | – | – | – | – | – | – | IC50 [1, 5]: 3.55 µM; IC50 [2, 6]: 49.5 µM; IC50 [3, 7]: 16.5 µM |
| C#CCOc1ccc(C(=O)c2ccc(NC(=O)C(=O)NCC(C)c3ccc(OC)cc3)cc2)cc1 (stereo not shown) [SW208219-1-A] | ≥ 49.5 µM | ≥ 49.5 µM | ≥ 49.5 µM | – | – | – | – |
| COc1ccc(CCNC(=O)NC(=O)c2ccc(COc3ccccc3)cc2)cc1 [SW208458-1-A] | 0.01 µM | 0.008 µM | 0.099 µM | – | – | – | IC50 [1, 4]: 0.00425 µM |
| COc1ccc(CCCC(=O)Nc2ccc(C(=O)c3ccccc3)cc2)cc1 [SW208470-1-A] | ≥ 49.5 µM | 34.8 µM | 34.4 µM | – | – | – | – |
| Cc1ccccc1Oc1coc2cc(OCc3cnn(-c4ccccc4)c3)ccc2c1=O [SW 208593-1] | – | – | – | 0.11 µM | > 15 µM | > 15 µM | – |
| Cc1cccc(C(=O)c2ccc(C(=O)NC(=O)NCCc3ccc(O)cc3)cc2)c1 [SW208582-1-A] | 2.73 µM | 1.53 µM | 0.5 µM | – | – | – | IC50 [1, 4]: 0.8 µM |
| COc1ccc(CCNC(=O)NC(=O)c2cccc(-c3cccc(Cl)c3)c2)cc1 [SW208392-1-A] | 6.71 µM | ≥ 49.5 µM | ≥ 49.5 µM | – | – | – | – |

Reference: patent US9789096B2, “Methods and compositions for selective and targeted cancer therapy” (Board of Regents of the University of Texas System, priority 2013, dated 2017)
